Measured values published in US20090068290A1, “BIFEPRUNOX DOSES FOR TREATING SCHIZOPHRENIA” (priority 2006, published 2009).

Tests used:
Assay type in all cases: in vivo, human
[1] = test system: adult subjects with schizophrenia; assay: PANSS responder rates, Clinical Study One
Protocol: There were five treatment groups in this study. […] Study medication was administered once daily. After Baseline measurements were performed, the titration phase was begun. Bifeprunox treated subjects were titrated up to 5 mg, 10 mg or 20 mg according to a standardized titration schedule (Day 1: 0.125 mg, Day 2: 0.25 mg, Day 3: 0.5 mg, Day 4: 1.0 mg, Day 5: 2.0 mg, Day 6: 5.0 mg, Day 7: 10.0 mg, Day 8: 20 mg). When the assigned dose was reached, subjects were maintained at that dose for the remainder of the six-week treatment period.

[2] = test system: adult subjects with schizophrenia; assay: BPRS psychosis cluster score, Clinical Study Two; settings: for Change from Baseline in BPRS Psychosis Cluster Score, Mean (SD) / Change from Baseline in BPRS Psychosis Cluster Score, Median / Change from Baseline in BPRS Psychosis Cluster Score, Trt Effect (bifeprunox—placebo) / mean change (SD) from Baseline to Endpoint in BPRS psychosis cluster score: LOCF; for Change from Baseline in BPRS Psychosis Cluster Score, Mean (SD) / Change from Baseline in BPRS Psychosis Cluster Score, Median / Change from Baseline in BPRS Psychosis Cluster Score, Trt Effect (bifeprunox—placebo): ITT population; for BPRS psychosis cluster score, treatment effect (bifeprunox—placebo): Endpoint LOCF; for mean change (SD) from Baseline to Endpoint in BPRS psychosis cluster score: ITT
Protocol: Rating scale assessments were performed weekly, except for week 5, to measure the change from baseline to endpoint of the PANSS total score. Other assessments included: PANSS positive symptom subscale score, PANSS negative symptom subscale score, PANSS general pschopathology subscale score, BPRS total score, BPRS psychosis score, the CGI-S score, the CGI-I score, responder rates based on the PANSS total score, and the Calgary Depression Scale for Schizophrenia (CDSS). […]
Subjects who completed this study had the option to continue in the long-term. […] Risperidone-treated subjects were titrated from 2 mg to 6 mg daily over a three-day period and were subsequently maintained at 6 mg/day for the remainder of the treatment period. […] Blood samples were also obtained at Screening/Baseline, Week 3, and Week 6 for clinical laboratory assessments.

[3] = Body weight, Clinical Study Two
[4] = test system: adult subjects with schizophrenia; assay: BPRS total score, Clinical Study Three; settings: for BPRS total score, treatment effect (bifeprunox—placebo): Endpoint LOCF; for mean change (SD) from Baseline to Endpoint in BPRS total score / Change from Baseline in BPRS Total Score, Mean (SD) / Change from Baseline in BPRS Total Score, Median / Change from Baseline in BPRS Total Score, Trt Effect (bifeprunox—placebo): LOCF; for mean change (SD) from Baseline to Endpoint in BPRS total score: ITT; for Change from Baseline in BPRS Total Score, Mean (SD) / Change from Baseline in BPRS Total Score, Median / Change from Baseline in BPRS Total Score, Trt Effect (bifeprunox—placebo): ITT population
Description: SECONDARY OBJECTIVES To assess the efficacy of bifeprunox in treating schizophrenia using the Positive Symptom sub-scale score of the PANSS, the Negative Symptom sub-scale score of the PANSS, the General Psychopathology sub-scale of the PANSS, Brief Psychiatric Rating Scale (BPRS) total score derived from the PANSS, BPRS psychosis score derived from the PANSS, the Clinical Global Impression Severity of Illness score (CGI-S), the Clinical Global Impression Improvement score (CGI-I), CGI-I responder rate, PANSS responder rate based on the PANSS total score, Calgary Depression Scale for Schizophrenia (CDSS), and Subject Satisfaction rating.
There were four treatment arms in this study, approximately 144 subjects per arm. […] After completing the Single-Blind Placebo Lead-in Period of at least three days, bifeprunox-treated subjects were titrated from 0.25 mg up to 20 mg/day or 30 mg/day according to a standardized titration scheme over a seven- or eight-day period, respectively. When the assigned dose was reached, subjects were maintained at that dose for the remainder of the six week treatment period. […] Subjects were hospitalized (if not already inpatients) after eligibility for study entry was verified, starting from the Screening Visit until at least 10 days after Baseline. Subjects could be hospitalized longer than 10 days if considered medically necessary by the Investigator. Rating scale assessments for efficacy and abnormal movement disorders were done weekly except for Week 5. […] Subject satisfaction with study medication was assessed at Week 6.

[5] = Bifeprunox 30 mg, Week 6/Endpoint
[6] = Bifeprunox 40 mg, Week 6/Endpoint
[7] = 'the mg bifeprunox group' (dose not given)
[8] = Bifeprunox 20 mg, Week 6/Endpoint

For `O=c1[nH]c2cccc(N3CCN(Cc4cccc(-c5ccccc5)c4)CC3)c2o1` [Bifeprunox, 7-[4-([1,1′-biphenyl]-3-ylmethyl)-1-piperazinyl]-2(3H)-benzoxazolone], the “PANSS Responder at Endpoint (LOCF), 35% Definition” value ([1]; Bifeprunox 20 mg, ITT) was 14 (13) n (%), the “PANSS responder rate, 20% definition” value ([1]; bifeprunox 20 mg, Endpoint LOCF) was 34% and the “Change from Baseline in BPRS Psychosis Cluster Score, Mean (SD)” value ([2]; Bifeprunox 30 mg, Week 1) was −1.7 (2.3). For the same compound, the “Change from Baseline in BPRS Psychosis Cluster Score, Median” value ([2]; Bifeprunox 30 mg, Week 1) was −1, the “Change from Baseline in BPRS Psychosis Cluster Score, Median” value ([2]; Bifeprunox 30 mg, Week 2) was −2 and the “Change from Baseline in BPRS Psychosis Cluster Score, Mean (SD)” value ([2]; Bifeprunox 30 mg, Week 3) was −3.1 (3.8). The “Change from Baseline in BPRS Psychosis Cluster Score, Median” value ([2]; Bifeprunox 30 mg, Week 3) was −2, the “Change from Baseline in BPRS Psychosis Cluster Score, Mean (SD)” value ([2]; Bifeprunox 30 mg, Week 4) was −3.1 (3.8) and the “Change from Baseline in BPRS Psychosis Cluster Score, Median” value ([2]; Bifeprunox 30 mg, Week 4) was −3. The “Change from Baseline in BPRS Psychosis Cluster Score, Mean (SD)” value [2, 5] was −3.2 (4.2), the “Change from Baseline in BPRS Psychosis Cluster Score, Median” value [2, 5] was −3 and the “Change from Baseline in BPRS Psychosis Cluster Score, Trt Effect (bifeprunox—placebo)” value [2, 5] was −1.4. The “Change from Baseline in BPRS Psychosis Cluster Score, Mean (SD)” value ([2]; Bifeprunox 40 mg, Week 1) was −1.7 (2.6), the “Change from Baseline in BPRS Psychosis Cluster Score, Median” value ([2]; Bifeprunox 40 mg, Week 1) was −1 and the “Change from Baseline in BPRS Psychosis Cluster Score, Mean (SD)” value ([2]; Bifeprunox 40 mg, Week 2) was −2.2 (3.5). The “Change from Baseline in BPRS Psychosis Cluster Score, Median” value ([2]; Bifeprunox 40 mg, Week 2) was −2, the “Change from Baseline in BPRS Psychosis Cluster Score, Mean (SD)” value ([2]; Bifeprunox 40 mg, Week 3) was −2.5 (4.0) and the “Change from Baseline in BPRS Psychosis Cluster Score, Median” value ([2]; Bifeprunox 40 mg, Week 3) was −2. The “Change from Baseline in BPRS Psychosis Cluster Score, Mean (SD)” value ([2]; Bifeprunox 40 mg, Week 4) was −2.5 (4.2), the “Change from Baseline in BPRS Psychosis Cluster Score, Median” value ([2]; Bifeprunox 40 mg, Week 4) was −1 and the “Change from Baseline in BPRS Psychosis Cluster Score, Mean (SD)” value [2, 6] was −2.6 (4.4). For the same compound, the “Change from Baseline in BPRS Psychosis Cluster Score, Median” value [2, 6] was −2, the “Change from Baseline in BPRS Psychosis Cluster Score, Trt Effect (bifeprunox—placebo)” value [2, 6] was −1.0 and the “BPRS psychosis cluster score, treatment effect (bifeprunox—placebo)” value ([2]; bifeprunox 30 mg) was −1.4. The “mean change (SD) from Baseline to Endpoint in BPRS psychosis cluster score” value ([2]; bifeprunox 30 mg) was −3.2 (4.2), the “BPRS psychosis cluster score, treatment effect (bifeprunox—placebo)” value ([2]; bifeprunox 40 mg) was −1.0 and the “mean change (SD) from Baseline to Endpoint in BPRS psychosis cluster score” value ([2]; bifeprunox 40 mg) was −2.6 (4.4). For the same compound, the “Weight, Baseline Mean of subjects with Endpoint change” value ([3]; Bifeprunox 30 mg) was 168.1 lbs, the “Weight, Baseline Mean of subjects with Week 6 change” value ([3]; Bifeprunox 30 mg) was 166.1 lbs and the “Weight, Baseline, Max” value ([3]; Bifeprunox 30 mg) was 360 lbs. The “Weight, Baseline, Mean (SD)” value ([3]; Bifeprunox 30 mg) was 169.2 (55.3) lbs, the “Weight, Baseline, Median” value ([3]; Bifeprunox 30 mg) was 161 lbs and the “Weight, Baseline, Min” value ([3]; Bifeprunox 30 mg) was 84 lbs. The “Weight, Change from Baseline at Endpoint, Max” value ([3]; Bifeprunox 30 mg) was 9 lbs, the “Weight, Change from Baseline at Endpoint, Mean (SD)” value ([3]; Bifeprunox 30 mg) was −2.2 (6.7) lbs and the “Weight, Change from Baseline at Endpoint, Median” value ([3]; Bifeprunox 30 mg) was 0 lbs. The “Weight, Change from Baseline at Endpoint, Min” value ([3]; Bifeprunox 30 mg) was −32 lbs, the “Weight, Change from Baseline at Week 6, Max” value ([3]; Bifeprunox 30 mg) was 8 lbs and the “Weight, Change from Baseline at Week 6, Mean (SD)” value ([3]; Bifeprunox 30 mg) was −4.3 (8.2) lbs. The “Weight, Change from Baseline at Week 6, Median” value ([3]; Bifeprunox 30 mg) was −2 lbs, the “Weight, Change from Baseline at Week 6, Min” value ([3]; Bifeprunox 30 mg) was −32 lbs and the “mean weight change at Endpoint” value ([3]; Bifeprunox 30 mg) was −2.2 lbs. The “Weight, Baseline Mean of subjects with Endpoint change” value ([3]; Bifeprunox 40 mg) was 160.7 lbs, the “Weight, Baseline Mean of subjects with Week 6 change” value ([3]; Bifeprunox 40 mg) was 162.0 lbs and the “Weight, Baseline, Max” value ([3]; Bifeprunox 40 mg) was 378 lbs. For the same compound, the “Weight, Baseline, Mean (SD)” value ([3]; Bifeprunox 40 mg) was 161.9 (46.6) lbs, the “Weight, Baseline, Median” value ([3]; Bifeprunox 40 mg) was 155 lbs and the “Weight, Baseline, Min” value ([3]; Bifeprunox 40 mg) was 84 lbs. For the same compound, the “Weight, Change from Baseline at Endpoint, Max” value ([3]; Bifeprunox 40 mg) was 15 lbs, the “Weight, Change from Baseline at Endpoint, Mean (SD)” value ([3]; Bifeprunox 40 mg) was −1.9 (5.8) lbs and the “Weight, Change from Baseline at Endpoint, Median” value ([3]; Bifeprunox 40 mg) was −1 lbs. For the same compound, the “Weight, Change from Baseline at Endpoint, Min” value ([3]; Bifeprunox 40 mg) was −18 lbs, the “Weight, Change from Baseline at Week 6, Max” value ([3]; Bifeprunox 40 mg) was 10 lbs and the “Weight, Change from Baseline at Week 6, Mean (SD)” value ([3]; Bifeprunox 40 mg) was −3.1 (5.8) lbs. The “Weight, Change from Baseline at Week 6, Median” value ([3]; Bifeprunox 40 mg) was −2 lbs, the “body weight (in words)” value ([3]; bifeprunox 30, 40 mg, 6 weeks) was “Small comparable decreases in body weight” and the “BPRS total score, treatment effect (bifeprunox—placebo)” value [4, 7] was −2.1. For the same compound, the “mean change (SD) from Baseline to Endpoint in BPRS total score” value [4, 7] was −7.9 (12.0), the “Change from Baseline in BPRS Total Score, Mean (SD)” value ([4]; Bifeprunox 20 mg, Week 1) was −3.2 (7.3) and the “Change from Baseline in BPRS Total Score, Median” value ([4]; Bifeprunox 20 mg, Week 1) was −3. For the same compound, the “Change from Baseline in BPRS Total Score, Mean (SD)” value ([4]; Bifeprunox 20 mg, Week 2) was −6.0 (9.1), the “Change from Baseline in BPRS Total Score, Median” value ([4]; Bifeprunox 20 mg, Week 2) was −7 and the “Change from Baseline in BPRS Total Score, Mean (SD)” value ([4]; Bifeprunox 20 mg, Week 3) was −7.5 (10.3). The “Change from Baseline in BPRS Total Score, Median” value ([4]; Bifeprunox 20 mg, Week 3) was −8, the “Change from Baseline in BPRS Total Score, Mean (SD)” value ([4]; Bifeprunox 20 mg, Week 4) was −8.1 (11.3) and the “Change from Baseline in BPRS Total Score, Median” value ([4]; Bifeprunox 20 mg, Week 4) was −9. For the same compound, the “Change from Baseline in BPRS Total Score, Mean (SD)” value [4, 8] was −8.5 (11.9), the “Change from Baseline in BPRS Total Score, Median” value [4, 8] was −8 and the “Change from Baseline in BPRS Total Score, Trt Effect (bifeprunox—placebo)” value [4, 8] was −2.1. The “Change from Baseline in BPRS Total Score, Mean (SD)” value ([4]; Bifeprunox 30 mg, Week 1) was −3.6 (7.3), the “Change from Baseline in BPRS Total Score, Median” value ([4]; Bifeprunox 30 mg, Week 1) was −4 and the “Change from Baseline in BPRS Total Score, Mean (SD)” value ([4]; Bifeprunox 30 mg, Week 2) was −5.2 (9.3). The “Change from Baseline in BPRS Total Score, Median” value ([4]; Bifeprunox 30 mg, Week 2) was −6, the “Change from Baseline in BPRS Total Score, Mean (SD)” value ([4]; Bifeprunox 30 mg, Week 3) was −6.7 (10.7) and the “Change from Baseline in BPRS Total Score, Median” value ([4]; Bifeprunox 30 mg, Week 3) was −7. The “Change from Baseline in BPRS Total Score, Mean (SD)” value ([4]; Bifeprunox 30 mg, Week 4) was −7.3 (10.9), the “Change from Baseline in BPRS Total Score, Median” value ([4]; Bifeprunox 30 mg, Week 4) was −8 and the “Change from Baseline in BPRS Total Score, Mean (SD)” value [4, 5] was −7.9 (12.0). For the same compound, the “Change from Baseline in BPRS Total Score, Median” value [4, 5] was −9, the “Change from Baseline in BPRS Total Score, Trt Effect (bifeprunox—placebo)” value [4, 5] was −1.1 and the “mean change (SD) from Baseline to Endpoint in BPRS total score” value ([4]; bifeprunox 20 mg) was −8.5 (11.9). The “BPRS total score, treatment effect (bifeprunox—placebo)” value ([4]; bifeprunox 30 mg) was −1.1.
